Consider four molecules from patent US11633506B2, “Using targeted radiotherapy (TRT) to drive anti-tumor immune response to immunotherapies” (Wisconsin Alumni Research Foundation, priority 2016, dated 2023).

Entries after “also recorded” stand apart in the source; their conditions may differ.

In data set [1] the test system is in vivo cancer and cancer stem cell models. To be noted: regardless of anatomic location; cited from earlier work.
The test system of a further data set is B78 melanoma. Briefly: ^124I-NM404 PET/CT imaging. It is filed as in vivo, mouse. To be noted: IV; ~200 mm^3 B78 tumor; image at 71 h. An excerpt: FIG. 5 is an image showing selective uptake of ^124I-NM404 by B78 melanoma. A mouse bearing a ˜200 mm^3 B78 tumor received IV ^124I-NM404 and had serial PET/CT scans done.
^131I-NM404 has shown selective uptake in vitro in >95% of tumor lines (human and mouse), with poor uptake by non-malignant cells, and with similar tumor specificity seen in vivo. This includes selective uptake in vivo with the B78 tumor (FIG. 5). In our preliminary dosimetry study, we gave ^124I-NM404 to C57BL/6 mice and characterized the time course of TRT exposure by serial PET/CT imaging (as in FIG. 5). […] After those four weeks, the remaining TRT dose to the B78 tumor would be less than 0.25 Gy. We will replicate the data we obtained in our 2-tumor model using xRT (FIG. 3), but use the lowest possible dose of targeted ^131I-NM404 TRT to enable effective elimination of tumor-induced tolerance at all sites of distant disease. However, unlike xRT, which delivers all dose in minutes and is then done, TRT deposits dose over time, depending upon both the biological and physical half-life of the targeted isotope (8 day t½ for ^131I). We want an initial TRT effect at the distant tumor sites to eradicate immune tolerance; however we want the immunosuppressive TRT effect to then be minimal when we give the IT-IC to induce ADCC and the in situ vaccine anti-tumor effects. […]

In a further data set the test system is two B78 tumors. Briefly: ^131I-NM404 + xRT + IT-IC in mice bearing two B78 tumors. Type of data set: in vivo, C57BL/6 mice. To be noted: 60 μCi day 1, 12 Gy xRT to primary day 8, IT-IC days 13-17. An excerpt:
Using the data summarized in Examples 7 and 8, a study was done in mice bearing 2 separate B78 tumors. Mice received the estimated required systemic ^131I-NM404 dose followed by xRT and local immunotherapy to the in situ vaccine site. […] Further testing, and modification of some of the experimental variables, is underway in order to try to maximize the desired effect of blocking CIT without suppressing the in situ vaccine effect. More details regarding these experiments are disclosed in Example 10 below.
Given the capacity of low dose ^131I-NM404 TRT to deplete tumor-infiltrating Tregs without rendering a mouse leukopenic, we tested whether low dose ^131I-NM404 might effectively overcome concomitant immune tolerance. C57BL/6 mice bearing two B78 tumors were treated with 60-μCi ^131I-NM404 on day 1 (NM404), as indicated. After one half-life (day 8), animals received 12 Gy xRT or no xRT to the primary tumor (in situ vaccine site). Control mice receiving no ^131I-NM404 were treated to the secondary tumor as indicated (0, 2, or 12 Gy). Mice received daily IT injections of IC to the primary tumor (in situ vaccine site), as indicated, on days 13-17.

Data set [2] concerns radiosensitive lymphoma tumor. Put plainly: ^131I-NM404 in mice bearing a radiosensitive lymphoma tumor. It is filed as in vivo. To be noted: ~2 Gy equivalent dose. An excerpt:
(§1) In order to then determine if a ˜2 Gy equivalent dose of ^131I-NM404 would have the desired effects against intratumor lymphoid cells (particularly Tregs), 2 separate approaches have been pursued.

The test system of data set [3] is B78 tumor. Briefly: Monte Carlo dosimetry from serial ^124I-NM404 PET/CT. Type of data set: in vivo, C57BL/6 mice. An excerpt: (§2) ^131I-NM404 has shown selective uptake in vitro in >95% of tumor lines (human and mouse), with poor uptake by non-malignant cells, and with similar tumor specificity seen in vivo. This includes selective uptake in vivo with the B78 tumor (FIG. 5). In our preliminary dosimetry study, we gave ^124I-NM404 to C57BL/6 mice and characterized the time course of TRT exposure by serial PET/CT imaging (as in FIG. 5). […] After those four weeks, the remaining TRT dose to the B78 tumor would be less than 0.25 Gy. We will replicate the data we obtained in our 2-tumor model using xRT (FIG. 3), but use the lowest possible dose of targeted ^131I-NM404 TRT to enable effective elimination of tumor-induced tolerance at all sites of distant disease. However, unlike xRT, which delivers all dose in minutes and is then done, TRT deposits dose over time, depending upon both the biological and physical half-life of the targeted isotope (8 day t½ for ^131I). We want an initial TRT effect at the distant tumor sites to eradicate immune tolerance; however we want the immunosuppressive TRT effect to then be minimal when we give the IT-IC to induce ADCC and the in situ vaccine anti-tumor effects. This is essential to allow full tumor destruction at all sites.
(§3) Using the dosimetry calculations from our preliminary data, we estimated that a dose of 3 μCi of ^131I-NM404, should deliver an equivalent of ˜0.2 Gy to the tumor site, a dose that we hypothesized should not be immunosuppressive and should not prevent lymphocyte-mediated tumor destruction. As noted above, this is the dose we estimated would remain yet to be delivered 28 days after an initial ^131I-NM404 dose of 60 μCi. We thus evaluated groups of mice bearing a single 200 mm^3 B78 tumor. On day 0, all mice got 12 Gy xRT to their tumor, and on days 6-10, all got 50 mcg/d of IT-IC. One group also got 3 μCi of ^131I-NM404 on d-0 (˜0.2 Gy). […] We thus hypothesize that if we use an initial dose of 60 μCi of ^131I-NM404 TRT on day-22, it would effectively block the tolerogenic effect of distant tumors, yet enable xRT on day 0 and IT-IC on days 6-10 (28 d after the TRT) to the first tumor to function as an in situ vaccine, inducing an adaptive response that then eradicates all tumors.
Based on the preliminary data described above in Examples 1-4, studies have been done to move these concepts into in vivo testing using TRT. […] This was done in order to estimate the amount of ^131I-NM404 that would be needed to approximate ˜2 Gy of xRT.
In most clinical scenarios, it is not feasible to deliver external beam, even low dose, to all tumor sites without eliciting marked bone marrow depletion and leukopenia that would result in immunosuppression. […]

Another data set has as its system B78 tumors. Put plainly: low dose ^131I-NM404 TRT: blood counts and tumor infiltrating T cells. It is filed as in vivo, C57BL/6 mice.
Excerpt: as §1
A second approach involved treating mice with B78 tumors with these same doses of ^131I-NM404. […] This observation again supports our hypothesis that it will be feasible to use TRT to overcome Treg-mediated CIT in order to rescue an in situ vaccine effect in animals bearing multiple tumors.
In most clinical scenarios, it is not feasible to deliver external beam, even low dose, to all tumor sites without eliciting marked bone marrow depletion and leukopenia that would result in immunosuppression. Here we tested whether TRT could be administered systemically to specifically deplete tumor infiltrating suppressive immune cells (Tregs), without triggering systemic immune cell depletion and leukopenia. Dosimetry studies in this B78 melanoma tumor model were performed using positron-emitting ^124I-NM404 confirm tumor-selective uptake of NM404 (FIG. 12A). C57BL/6 mice bearing B78 tumors were treated with 60 μCi ^131I-NM404. This activity approximates the amount of ^131I-NM404 necessary to deliver ˜2 Gy TRT to a B78 tumor. Peripheral blood and tumor samples were collected in untreated control mice (C) and at 8 day intervals (T1=d8, T2=d16, T3=d24, T4=d32) thereafter.

The subject of another data set is B78 tumor tissue. Briefly: RT-PCR gene expression of immune signatures in tumor tissue after TRT. It is filed as in vivo, mice. The conditions noted are these: TRT alone; pretreatment and 8 d intervals. Here is the method: Finally, to characterizing the immunological effects of TRT on the immune cells within tumors, we have treated B78 bearing mice with ^131I-NM404 and collected tumor tissue at pretreatment and at half-life (8 d) intervals thereafter. These tissues were then analyzed by RT-PCR for gene expression of a panel of immune signatures.

For data set [4], the system named is B78 tumor. Briefly: ^131I-NM404 with xRT+IT-IC, single B78 tumor. Type of data set: in vivo, mice.
Excerpt: as §3
Using the data summarized in Examples 7 and 8, a study was done in mice bearing 2 separate B78 tumors. Mice received the estimated required systemic ^131I-NM404 dose followed by xRT and local immunotherapy to the in situ vaccine site. […]

Data set [5] deals with tumor lines (human and mouse). Put plainly: selective uptake in vitro in tumor lines. To be noted: poor uptake by non-malignant cells. Type of data set: cell-based.
Excerpt: as §2

In the next data set the test system is Tregs. Briefly: Treg depletion by diphtheria toxin in DEREG mice with primary and secondary B78 tumors treated with xRT+IT-IC. It is filed as in vivo. To be noted: IP diphtheria toxin vs PBS, with xRT+IT-IC to primary tumor.
The mark [6] stands for this setting: 3 and 4 half-life time points, vs untreated baseline and 2nd half-life.

`C[N+](C)(C)CCOP(=O)([O-])OCCCCCCCCCCCCCCCCCCc1ccc(I)cc1` [NM404, 18-(p-iodophenyl)octadecyl phosphocholine]: the “tumor uptake / targeting across in vivo models” value in [1] is recorded as “near universal tumor uptake in all but three of over 70 in vivo models”.
As for `C[N+](C)(C)CCOP(=O)([O-])OCCCCCCCCCCCCCCCCCCc1ccc([124I])cc1` [^124I-NM404], the “tumor uptake on PET/CT” value in the data set on B78 melanoma is “Excellent tumor uptake; also recorded: selective uptake by the tumor with some residual background uptake by the heart and liver”.
In the case of `C[N+](C)(C)CCOP(=O)([O-])OCCCCCCCCCCCCCCCCCCc1ccc([131I])cc1` [^131I-NM404], the “concomitant immune tolerance (CIT) / primary and secondary tumor response” value in the data set on two B78 tumors was “did appear to attenuate CIT; also recorded: effectively overcomes concomitant immune tolerance and rescues the systemic anti-tumor effect of in situ vaccination”. Also, the lymphoid tumor response entry in [2] is given as “potent lymphoid tumor shrinkage/dose-dependent inhibition”. Also, in the data set with B78 tumor [3] (3 μCi), the “dose delivered to the tumor site” value is on record as about 0.2 Gy. In addition, in the data set on B78 tumor [3] (after four weeks, initial 60 μCi), the “remaining TRT dose to the B78 tumor” value is given as “less than 0.25 Gy”. Further, the “activity necessary to deliver ~2 Gy TRT to a B78 tumor” value in the data set on B78 tumor [3] (mouse, in vivo) is listed as about 60 μCi. In addition, in the data set on B78 tumor [3] (over a four week period of decay), the “activity needed to deliver ~3 Gy to an established B78 tumor” value was about 60 μCi. In the data set with B78 tumors (2 half-life time point), the “intratumor effector CD8+ T cells” value is given as “decrease in intratumor effector CD8+ T cells”. Also, the “intratumor FoxP3+ Tregs” value in the data set on B78 tumors (2 half-lifes after TRT) is listed as “decrease in intratumor FoxP3+ Tregs”. In the data set on B78 tumors (setting [6]), the “intratumor CD8+ effector T cells” value is “increase in intratumor CD8+ effector T cells” and the “intratumor Tregs” value was “further decline in the levels of intratumor Tregs”. Moreover, in the data set with B78 tumors (60 μCi, d8-d32), the “level of tumor infiltrating CD8+ effector T cells” value is “did not significantly affect the level of tumor infiltrating CD8+ effector T cells” and the “tumor infiltrating FoxP3+ Tregs” value is on record as “significantly depleted”. For the same molecule, the systemic leukopenia entry in the data set on B78 tumors (60 μCi, peripheral blood d8-d32) was “did not result in any significant systemic leukopenia”. In addition, in the data set on B78 tumors (~2 Gy equivalent dose), the “circulating lymphoid cells (peripheral complete blood counts)” value is recorded as “did not cause either substantial shrinkage/slowing of the B78 tumor or any evident depletion of circulating lymphoid cells”. The B78 tumor growth result in the data set with B78 tumors (~2 Gy equivalent dose, TRT alone) is listed as “did not cause either substantial shrinkage/slowing of the B78 tumor”. Further, the “systemic lymphopenia (peripheral complete blood count)” value in the data set with B78 tumors (~2 Gy equivalent dose, half-life (8 d) intervals) was “no systemic lymphopenia at any time point”. The “gene expression of immune signatures” value with B78 tumor tissue was “striking changes in expression of tumor cell markers of immunsusceptibility and in genes normally expressed only by immune cells”. For the same molecule, in [1], the “tumor uptake / targeting across in vivo models” value is “nearly universal tumor targeting properties in over 60 in vivo cancer and cancer stem cell models”. In addition, in the data set on B78 tumor [4] (3 μCi on d-0 (~0.2 Gy), 12 Gy xRT day 0, IT-IC days 6-10), the “tumor eradication by xRT+IT-IC with vs without TRT” value was “same degree of tumor eradication; also recorded: equally effective”. Besides, in the data set on B78 tumor [4] (estimated required systemic TRT dose, mice with one tumor), the “local in situ vaccine effect” value is listed as “did not appear to interfere with the local in situ vaccine effect”. Besides, the “tumor lines with selective uptake in vitro” value in [5] was over 95%.
Turning to diphtheria toxin, the “primary and secondary tumor response” value with Tregs was “improved primary (FIG. 9B) and secondary (FIG. 9C) tumor response”.
